Test results: patent US6777396B2, “Feed for livestock” (Ajinomoto Co., Inc., priority 2000, dated 2004)
Marks after values point to notes of the source that are not given here.

Experiments:
weaned barrows [1] = assay: Example 3: feeding trial in weaned piglets, glutamine and/or glutamic acid added to starter feed; assay type: in vivo
From the text: 120 weaned barrows were used and divided into 4 groups (30 animals for each group, 6 replications with 5 animals per replication), namely a control group (C), a glutamine alone administration group (GLN), a glutamic acid alone administration group (GLU) and a glutamine+glutamic acid mixture administration group (GLN+GLU). Piglets were weaned at 17 days of age in average. Also, the GLN group was provided with an experimental feed prepared by adding crystalline glutamine at 1.2% per feed weight to the starter feed, the GLU group with an experimental feed prepared by adding crystalline glutamic acid at 1.2% per feed weight to the starter feed, and the GLN+GLU group with an experimental feed prepared by adding glutamine and glutamic acid at 0.12% and 1.08%, respectively, per feed weight to the starter feed. After two weeks passed, a common feed was fed to all groups. Body weight and residual feed weight were measured to calculate feed intake, body weight gain and feed efficiency on the 14th and 21st days after the weaning.

Weaned piglets = assay: Example 1: feeding trial in weaned piglets, nucleic acid and/or glutamine added to starter feed; assay type: in vivo
From the text: Weaned piglets, 72 barrows and 72 gilts were used and divided into 4 groups (36 animals for each group, 6 replications with 6 animals per replication), namely a control group (C), a nucleic acid alone administration group (N), a glutamine alone administration group (G) and a nucleic acid+glutamine mixture administration group (N+G). Piglets were weaned at 17 days of age in average. Also, the N group was provided with an experimental feed prepared by adding commercially available ribonucleic acid extracted from beer yeast (manufactured by Kirin Brewery CO., LTD.) at 0.8% per feed weight to the starter feed, the G group with an experimental feed prepared by adding crystalline glutamine at 1.2% per feed weight to the starter feed, and the N+G group with an experimental feed prepared by adding ribonucleic acid and glutamine at 0.8% and 1.2%, respectively, per feed weight to the starter feed. After two weeks passed, a common diet was fed to all groups. Body weight and residual feed weight were measured to calculate feed intake, body weight gain and feed efficiency on the 7th, 14th, 21st and 28th days after the weaning.

weaned barrows [2] = assay: Example 2: feeding trial in weaned piglets, nucleic acid and/or glutamic acid added to starter feed; assay type: in vivo
From the text: 120 weaned barrows were used and divided into 4 groups (30 animals for each group, 6 replications with 5 animals per replication), namely a control group (C), a nucleic acid alone administration group (N), a glutamic acid alone administration group (G) and a nucleic acid+glutamic acid mixture administration group (N+G). Piglets were weaned at 17 days of age in average. Also, the N group was provided with an experimental feed prepared by adding commercially available ribonucleic acid extracted from beer yeast (manufactured by Kirin Brewery CO., LTD.) at 0.8% per feed weight to the starter feed, the G group with an experimental feed prepared by adding crystalline glutamic acid at 1.2% per feed weight to the starter feed, and the N+G group with an experimental feed prepared by adding ribonucleic acid and glutamic acid at 0.12% and 1.08%, respectively, per feed weight to the starter feed. Body weight and residual feed weight were measured to calculate feed intake, body weight gain and feed efficiency on the 7th and 14th days after the weaning.

Small Intestinal Villi = assay: Example 4: effect on recovery of small intestinal villi (villi length, crypt thickness by optical microscope); assay type: in vivo, piglets; settings: 7th day after weaning
From the text: 24 weaned barrows were used and divided into 4 groups (6 animals for each group), namely a control group (C), a nucleic acid alone administration group (N), a glutamic acid alone administration group (G) and a nucleic acid+glutamic acid mixture administration group (N+G). Piglets were weaned at 17 days of age in average. Also, the N group was provided with an experimental feed prepared by adding commercially available ribonucleic acid extracted from beer yeast (manufactured by Kirin Brewery CO., LTD.) at 0.8% per feed weight to the starter feed, the G group with an experimental feed prepared by adding crystalline glutamic acid at 1.2% per feed weight to the starter feed, and the N+G group with an experimental feed prepared by adding ribonucleic acid and glutamic acid at 0.12% of and 1.08%, respectively, per feed weight to the starter feed. On the 7th day after weaning, all piglets were sacrificed to collect the small intestines. After the preparation of tissue sections from the collected small intestines by a general procedure, the length of villi and the thickness of crypt were measured using optical microscope.

[3] = 8 to 14 days after weaning, not statistically significant

`N[C@@H](CCC(=O)O)C(=O)O` [G, glutamic acid] was tested, and the Average feed intake (weaned barrows [1]; 1 to 14 days (test feed)) was 0.225 kg/day, the Body weight gain (weaned barrows [1]; 1 to 14 days (test feed)) was 0.156 kg/day and the Feed efficiency (weaned barrows [1]; 1 to 14 days (test feed)) was 1.453 Feed kg/Gain kg. For the same compound, the Average feed intake (weaned barrows [1]; 15 to 21 days (common feed)) was 0.459 kg/day, the Body weight gain (weaned barrows [1]; 15 to 21 days (common feed)) was 0.342 kg/day and the Feed efficiency (weaned barrows [1]; 15 to 21 days (common feed)) was 1.333 Feed kg/Gain kg.
With `NC(=O)CC[C@H](N)C(=O)O` [G, glutamine] the Average feed intake (weaned barrows [1]; 1 to 14 days (test feed)) was 0.211 kg/day, the Body weight gain (weaned barrows [1]; 1 to 14 days (test feed)) was 0.147 kg/day and the Feed efficiency (weaned barrows [1]; 1 to 14 days (test feed)) was 1.439 Feed kg/Gain kg. The Average feed intake (weaned barrows [1]; 15 to 21 days (common feed)) was 0.446 kg/day, the Body weight gain (weaned barrows [1]; 15 to 21 days (common feed)) was 0.351 kg/day and the Feed efficiency (weaned barrows [1]; 15 to 21 days (common feed)) was 1.280 Feed kg/Gain kg.
For ribonucleic acid, the Average feed intake (Weaned piglets; 0 to 7 days) was 0.159 kg/day, the Body weight gain (Weaned piglets; 0 to 7 days) was 0.116 kg/day and the Feed efficiency (Weaned piglets; 0 to 7 days) was 1.392 Feed kg/Gain kg. For the same compound, the Average feed intake (Weaned piglets; 0 to 28 days) was 0.463 kg/day, the Body weight gain (Weaned piglets; 0 to 28 days) was 0.281 kg/day and the Feed efficiency (Weaned piglets; 0 to 28 days) was 1.648^bc Feed kg/Gain kg. It also gave an Average feed intake (Weaned piglets; 7 to 14 days) of 0.377 kg/day, a Body weight gain (Weaned piglets; 7 to 14 days) of 0.301 kg/day and a Feed efficiency (Weaned piglets; 7 to 14 days) of 1.256 Feed kg/Gain kg. It also gave an Average feed intake (Weaned piglets; 14 to 21 days) of 0.525 kg/day, a Body weight gain (Weaned piglets; 14 to 21 days) of 0.274 kg/day and a Feed efficiency (Weaned piglets; 14 to 21 days) of 1.945 Feed kg/Gain kg. The Average feed intake (Weaned piglets; 21 to 28 days) was 0.797 kg/day, the Body weight gain (Weaned piglets; 21 to 28 days) was 0.432 kg/day and the Feed efficiency (Weaned piglets; 21 to 28 days) was 1.852 Feed kg/Gain kg. The Average body weight (Weaned piglets; 7 days after weaning, test feed days 0-14) was 6.17 kg, the Average body weight (Weaned piglets; 14 days after weaning, test feed days 0-14) was 8.28 kg and the Average body weight (Weaned piglets; 21 days after weaning, common diet after day 14) was 10.20 kg. The Average body weight (Weaned piglets; 28 days after weaning, common diet after day 14) was 13.23 kg, the Average body weight (Weaned piglets; at the time of weaning (baseline)) was 5.36 kg and the “improvement in feed efficiency compared to the C group (in words)” value (Weaned piglets; whole test period (0 to 28 days after weaning)) was “slight improvement in feed efficiency”. The Average feed intake (weaned barrows [2]; 0 to 7 days) was 0.151^ab kg/day, the Body weight gain (weaned barrows [2]; 0 to 7 days) was 0.102^b kg/day and the Feed efficiency (weaned barrows [2]; 0 to 7 days) was 1.490 Feed kg/Gain kg. It also gave an Average feed intake (weaned barrows [2]; 8 to 14 days) of 0.291 kg/day, a Body weight gain (weaned barrows [2]; 8 to 14 days) of 0.234 kg/day and a Feed efficiency (weaned barrows [2]; 8 to 14 days) of 1.252 Feed kg/Gain kg. The “body weight gain per day compared with C group (in words)” value (weaned barrows [2]; [3]) was “further increased”, the “feed efficiency compared to the C group and G group (in words)” value (weaned barrows [2]; [3]) was “tendency to be improved” and the “body weight gain per day compared with the other groups (in words)” value (weaned barrows [2]; 7 days just after weaning) was “not different from the C group”. For the same compound, the Crypt thickness (Small Intestinal Villi; Duodenum) was 130^ab μm, the Villi length (Small Intestinal Villi; Duodenum) was 385^b μm and the Crypt thickness (Small Intestinal Villi; Ileum) was 128^b μm. The Villi length (Small Intestinal Villi; Ileum) was 344^ab μm, the Crypt thickness (Small Intestinal Villi; Jejunum) was 136^b μm and the Villi length (Small Intestinal Villi; Jejunum) was 406^b μm. For the same compound, the “villi length compared between groups (in words)” value (Small Intestinal Villi; duodenum, N and G vs C, N+G vs N and G) was “significantly longer” and the “crypt thickness compared with the C and G group (in words)” value (Small Intestinal Villi; jejunum and ileum) was “significantly thicker”.
